From patent US9125862B2, “Methods for the treatment of Prader-Willi-like syndrome or non-organic failure to thrive (NOFITT) feeding disorder using an agonist of the oxytocin receptor” (Institut National de la Sante et de la Rechereche Medicale …, priority 2010, dated 2015)

Assays:
[1] = test system: adult patients with PWS; assay: Eating behaviour scoring after intranasal administration; format: in vivo, human
From the text: The behaviour of the patients was carefully monitored, scored daily by the team psychologist, and documented on the case report form for the two days before drug administration, on the half-day following administration (early effects) and over the two days following drug administration (late effects). Both the staff and the rater were unaware of treatment status. There are currently no validated grids that evaluate the specific behavioural features of patients with PWS that they particularly wanted to study, i.e. tendencies towards isolation, sadness, and depression, self-depreciation, self-mutilation, conflicts with others, disruptive behaviour, interest in friendship, interest in love affairs, and trust of others. […] The patients were well known to the team but the mean behavior status was re-evaluated during the first week of admission using the same grid. The behavioural features of the patients were scored as unchanged, moderately changed, or severely changed. […] Eating behaviour was also scored using three categories: usual, better than usual or worse, based on the analysis of each meal. The following were evaluated: amount of food intake per meal, amount of food requested per meal, duration of meal, and behaviour before/during/after the meal. To evaluate the early effect of OT, we analysed only the first meal after drug administration.

[2] = test system: adult patients with PWS; assay: Behavioural grid scores after a single intranasal administration, double-blind placebo-controlled pilot study; format: in vivo, human; parameters: key to Change in behavioural scores: Depressive tendencies, Mean / Change in behavioural scores: Self-depreciation, Mean / Change in behavioural scores: Interest in love affair, Mean / Change in behavioural scores: Trust in others, Mean / Change in behavioural scores: Isolation tendencies, Mean / Change in behavioural scores: Sadness tendencies, Mean: grid score: negative = deterioration, positive = improvement
From the text: The inventors designed a double-blind randomised, placebo-controlled pilot study (ClinicalTrials.gov Identifier: NCT01038570) to be conducted in a dedicated PWS centre, where patients are regularly admitted for one month and live in a controlled environment. Patients know they have no free access to food but no doubt about the time and the content of meals. For each stay, 16 patients with PWS are admitted and take part in daily planned occupational and physical group activities. They also receive medical care as needed and psychological support. The 24 patients included in this study (16 females, 8 males, median age 28.5 years [18.7 to 43.6], median BMI 43 kg/m2 [19.4 to 67.4]) were stratified on gender and IQ (median IQ=51 [45 to 75]). […] Patients as well as parents or caregivers gave their written consent prior to entering the study. Exclusion criteria were an abnormal ECG and other severe cardiovascular problems. Patients were well known to the team. Each pair of patients of the same gender and same IQ range was evaluated the same day. The two patients of the pair received either OT or placebo in a double-blind randomisation. Patients were included in the study over the course of three series of stays.
Each patient received a single intranasal administration of either placebo (saline solution) or OT (Syntocinon®/-Spray, Novartis, Basel, Switzerland) with three puffs per nostril (24 UI). The dose of 24 UI is the most frequently reported in the literature. […] This nurse knew neither the patients nor the study.
The behaviour of the patients was carefully monitored, scored daily by the team psychologist, and documented on the case report form for the two days before drug administration, on the half-day following administration (early effects) and over the two days following drug administration (late effects). Both the staff and the rater were unaware of treatment status. There are currently no validated grids that evaluate the specific behavioural features of patients with PWS that they particularly wanted to study, i.e. tendencies towards isolation, sadness, and depression, self-depreciation, self-mutilation, conflicts with others, disruptive behaviour, interest in friendship, interest in love affairs, and trust of others. For this reason, they used an in-house grid developed by the caregivers and based on the routine observation of these patients in this dedicated centre for PWS with recognized expertise (17, 18). The criteria that the staff used to fill in the grid are explained in Table 1. The patients were well known to the team but the mean behavior status was re-evaluated during the first week of admission using the same grid. The behavioural features of the patients were scored as unchanged, moderately changed, or severely changed. For each criterion, a negative score reflected deterioration in the mean behavior status of the patient while a positive score reflected an improvement. Eating behaviour was also scored using three categories: usual, better than usual or worse, based on the analysis of each meal. The following were evaluated: amount of food intake per meal, amount of food requested per meal, duration of meal, and behaviour before/during/after the meal. To evaluate the early effect of OT, we analysed only the first meal after drug administration.

[3] = 19 patients with deletions, P=0.05, data not shown
[4] = Early effect (half-day following administration), intranasal 24 UI
[5] = Late effect (mean of two days following administration), intranasal 24 UI
[6] = Pre-administration (mean of two days before), OT group baseline
[7] = pre-post difference (late effect score minus pre-administration score), OT group

CC[C@H](C)[C@@H]1NC(=O)[C@H](Cc2ccc(O)cc2)NC(=O)[C@@H](N)CSSC[C@@H](C(=O)N2CCC[C@H]2C(=O)N[C@@H](CC(C)C)C(=O)NCC(N)=O)NC(=O)[C@H](CC(N)=O)NC(=O)[C@H](CCC(N)=O)NC1=O [oxytocin]
scores assessing eating behaviour, OT vs placebo group ([1]; intranasal 24 UI): No statistical difference | patients who did not feel hungry and slightly decreased their food intake ([1]; over the two days following intranasal administration, five patients, placebo 10%): 45% | effect on disruptive behaviour ([2]; 19 patients with deletions (9 OT, 10 placebo), P=0.04, data not shown): significant effect | interest in friendship [2, 3]: more interest in friendship | trust in others [2, 3]: trend towards more trust in others | sadness tendencies ([2]; 19 patients with deletions, P=0.07, data not shown): fewer sadness tendencies | Depressive tendencies score [2, 4]: 0 ± 0 | Disruptive behaviour score [2, 4]: −0.167 ± 0.389 | Interest in friendship score [2, 4]: 0.917 ± 0.515 | Interest in love affairs score [2, 4]: 0.917 ± 0.515 | Isolation tendencies score [2, 4]: −0.083 ± 0.289 | Sadness tendencies score [2, 4]: −0.083 ± 0.289 | Self-depreciation score [2, 4]: −0.083 ± 0.289 | Self-mutilation score [2, 4]: −0.083 ± 0.289 | Trust in others score [2, 4]: 0.833 ± 0.389 | Conflicts with others score [2, 5]: −0.111 ± 0.205 | Depressive tendencies score [2, 5]: 0 ± 0 | Interest in friendship score [2, 5]: 1.028 ± 0.234 | Interest in love affairs score [2, 5]: 0.903 ± 0.411 | Isolation tendencies score [2, 5]: 0 ± 0 | Self-depreciation score [2, 5]: 0 ± 0 | Self-mutilation score [2, 5]: −0.083 ± 0.195 | Conflicts with others score [2, 6]: −0.319 ± 0.359 | Depressive tendencies score [2, 6]: −0.056 ± 0.192 | Disruptive behaviour score [2, 6]: −0.431 ± 0.344 | Interest in friendship score [2, 6]: 0.875 ± 0.433 | Interest in love affairs score [2, 6]: 0.972 ± 0.531 | Isolation tendencies score [2, 6]: −0.083 ± 0.289 | Sadness tendencies score [2, 6]: −0.194 ± 0.407 | Self-depreciation score [2, 6]: −0.056 ± 0.192 | Self-mutilation score [2, 6]: −0.278 ± 0.468 | Trust in others score [2, 6]: 0.861 ± 0.332 | disruptive behaviour ([2]; excluding the seven patients on psychotropic medications, two days following administration, P=0.04, data not shown): less disruptive behaviour | Change in behavioural scores: Conflicts with others, Mean [2, 7]: 0.208 | Change in behavioural scores: Depressive tendencies, Mean [2, 7]: 0.056 | Change in behavioural scores: Interest in friendship, Mean [2, 7]: 0.153 | Change in behavioural scores: Interest in love affair, Mean [2, 7]: −0.069 | Change in behavioural scores: Isolation tendencies, Mean [2, 7]: 0.083 | Change in behavioural scores: Sadness tendencies, Mean [2, 7]: 0.111 | Change in behavioural scores: Self-depreciation, Mean [2, 7]: 0.056 | Change in behavioural scores: Trust in others, Mean [2, 7]: 0.167
